Source: PMC10828444, “Selective inhibition of overactive warmth-sensitive Ca^2+-permeable TRPV3 channels by antispasmodic agent flopropione for alleviation of skin inflammation” (The Journal of Biological Chemistry, 2023)
Where a chain is given by its changes, count along the chain named.

What was measured:
[1] = target: T1, TRPV3-F666A mutant (Homo sapiens, UniProt Q8NET8, F666A); assay: Whole-cell and single-channel recordings of TRPV3-F666A mutant; assay type: cell-based; details: 100 μM flopropione whole-cell (50 μM 2-APB); 50 μM single-channel (30 μM 2-APB)
T1 construct: expressed in transfected cells; host or cells: HEK293
T1 sequence (Q8NET8 1-790 F666A): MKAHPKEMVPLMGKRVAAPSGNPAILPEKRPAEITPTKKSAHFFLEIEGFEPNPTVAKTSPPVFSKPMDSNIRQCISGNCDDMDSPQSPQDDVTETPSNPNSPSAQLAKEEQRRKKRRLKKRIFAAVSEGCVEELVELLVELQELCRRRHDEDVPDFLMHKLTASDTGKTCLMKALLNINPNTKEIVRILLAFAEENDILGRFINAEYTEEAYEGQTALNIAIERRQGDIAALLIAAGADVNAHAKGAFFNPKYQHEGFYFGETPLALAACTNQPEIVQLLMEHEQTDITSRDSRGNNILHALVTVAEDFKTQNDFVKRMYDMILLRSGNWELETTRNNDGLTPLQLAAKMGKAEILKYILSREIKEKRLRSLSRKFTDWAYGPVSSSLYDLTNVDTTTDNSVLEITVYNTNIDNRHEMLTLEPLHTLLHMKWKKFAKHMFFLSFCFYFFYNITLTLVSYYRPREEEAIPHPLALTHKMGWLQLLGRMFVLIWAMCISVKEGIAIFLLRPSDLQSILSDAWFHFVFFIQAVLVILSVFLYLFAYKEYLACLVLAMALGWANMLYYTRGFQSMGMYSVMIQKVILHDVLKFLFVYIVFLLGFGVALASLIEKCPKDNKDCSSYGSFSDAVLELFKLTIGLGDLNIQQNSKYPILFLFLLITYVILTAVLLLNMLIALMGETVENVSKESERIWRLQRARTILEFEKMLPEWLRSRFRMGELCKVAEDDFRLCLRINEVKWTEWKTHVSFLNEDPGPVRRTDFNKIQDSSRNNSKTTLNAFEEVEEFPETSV
Experimental: (§1) HEK293 cells were cultured in Dulbecco’s modified Eagle’s medium (DMEM, Gibco) containing 4.5 g/L D-glucose supplemented with 10% fetal bovine serum based at 37 °C with 5% CO2. For whole-cell patch-clamp recordings, cells were grown in glass coverslips for 24 h before transient transfections with 3000 ng cDNAs of hTRPV3 (gene accession number BC104866.1), hTRPV1 (accession number NM_080704.3), mTRPV2 (accession number NM_011706.2), hTRPV4 (accession number NM_021625.5), hTRPA1 (accession number NM_007332.3) and hTRPM8 (accession number NM_024080.5) into HEK293 cells grown in a 35-mm cell culture dish using Lipofectamine 2000 (Invitrogen). Cells were used 18 ∼ 24 h after transfection. All WT or mutant hTRPV3 plasmids were validated by DNA sequencing.
Whole-cell patch clamp recordings of wild-type and mutants were carried out at room temperature using the HEKA EPC10 amplifier powered by PatchMaster software (HEKA) or MultiClamp 700B amplifier driven by Clampex 11.0.3 software. The borosilicate glass pipettes were pulled and fire-polished to 3∼6 MΩ using a DMZ universal electrode puller (Zeitz-Instruments, GmbH). Pipette solution and bath solution both contained (in mM): 130 NaCl, three HEPES, and 0.2 EDTA (pH = 7.4). Cell membrane potential was held at 0 mV, currents were recorded at a voltage ramp from −100 to +100 mV for 500-ms and analyzed at ±80 mV. […]

[2] = target: T2, hTRPV3 I505A mutant (Homo sapiens, UniProt Q8NET8, I505A); assay: Whole-cell recordings of TRPV3 I505A mutant; assay type: cell-based; details: 100 μM flopropione, 2-APB
T2 construct: expressed in transfected cells; host or cells: HEK293
T2 sequence (Q8NET8 1-790 I505A): T1 sequence (Q8NET8 1-790 F666A) with I505A, A666F
Experimental: as §1
Whole-cell patch clamp recordings of wild-type and mutants were carried out at room temperature using the HEKA EPC10 amplifier powered by PatchMaster software (HEKA) or MultiClamp 700B amplifier driven by Clampex 11.0.3 software. The borosilicate glass pipettes were pulled and fire-polished to 3∼6 MΩ using a DMZ universal electrode puller (Zeitz-Instruments, GmbH). Pipette solution and bath solution both contained (in mM): 130 NaCl, three HEPES, and 0.2 EDTA (pH = 7.4). Cell membrane potential was held at 0 mV, currents were recorded at a voltage ramp from −100 to +100 mV for 500-ms and analyzed at ±80 mV.

effect of F666A mutation on flopropione-mediated inhibition [1]: no effect
effect of I505 mutation on inhibition by flopropione [2]: partially reduced TRPV3 inhibition
Structure (SMILES): CCC(=O)c1c(O)cc(O)cc1O [flopropione]
